{"source": "patent US11639372B1", "about": "“Zinc-charged peptides for the treatment of cancer and alzheimer's disease” (priority 2021, dated 2023)", "key": {"respiratory chain III [1]": {"test_system": "respiratory chain III", "assay": "respiratory chain III activity, mitochondria of normal colon cells", "type": "biochemical", "details": "normal CCD8Co colon cells; 5 μM, 2 hours (FIG. 15d)", "procedure": "(§1) For the testing depicted in FIGS. 15a-15d, […] zinc-charged 4H3 was utilized and compared to a control. In this test, mitochondria was isolated from the cell line, and complex I and III activity was tested using a Cayman Mitocheck Complex I & III Activity Kit. […] However, the zinc-charged 4H3 increased the activity of respiratory chain I by 21% but inhibited respiratory chain III by 42% in normal CCD8Co colon cells."}, "respiratory chain I [2]": {"test_system": "respiratory chain I", "assay": "respiratory chain I activity, mitochondria of normal colon cells", "type": "biochemical", "details": "normal CCD8Co colon cells; 5 μM, 2 hours (FIG. 15c)", "procedure": "as §1"}, "respiratory chain I [3]": {"test_system": "respiratory chain I", "assay": "respiratory chain I activity, mitochondria isolated from HT-29 cells", "type": "biochemical", "details": "HT-29 colon cancer cells; 5 μM, 2 hours (FIG. 15a)", "procedure": "as §1"}, "[4]": {"assay": "pharmacokinetic study, serum half-life", "type": "in vivo"}, "HT-29 colon cancer cells": {"test_system": "HT-29 colon cancer cells", "assay": "apoptotic effect on HT-29 cells of saliva from a human volunteer after oral zinc-charged 4H3", "type": "cell-based", "details": "for time at which saliva-induced apoptotic activity peaked: human volunteer", "procedure": "It has been shown that the zinc-charged peptide induces apoptosis in various cancer lines. FIGS. 1a, 1b, and 2 show this effect of the zinc-charged peptide on the HT-29 cancer cell line after the zinc-charged peptide was given to a human volunteer. Specifically, 200 mg of zinc-charged 4H3 was orally given to the volunteer in a liquid form. The peptide mixture was an undialyzed sample, such that the zinc-charged 4H3 in the liquid had not yet been separated from the saturated EDTA and free zinc.\nSaliva samples were then collected from the volunteer at 4-, 6-, 8-, 9-, 12- and 17-hours post-ingestion of the zinc-charged 4H3. The saliva samples were then incubated with HT-29 cancer cells for either 14-hours or 24-hours to observe the apoptotic effect. FIG. 1a depicts the percentage of cell shrinkage and death of HT-29 colon cancer cells after incubation for 14- and 24-hours with the human saliva samples containing the zinc-charged 4H3 noted above. As shown, the saliva sample collected 4-hours post-ingestion has little effect on the HT-29 cancer cells. […] The saliva-induced apoptotic activity thus peaked at 9-hours post-ingestion.\nFIGS. 1B-f depicts microscopic slides of the HT-29 cancer cells after being incubated for […] with specific saliva samples. […] FIG. 1d depicts the saliva sample taken from the volunteer 4 hours after the zinc-charged peptide was ingested. FIGS. 1e and 1f depict saliva samples collected from the volunteer after 10-hour ingestion.\nFIG. 2 depicts a dry, solid sample of the zinc-charged 4H3 that was administered to a human volunteer. Specifically, 150 mg of zinc-charged 4H3 was orally given to the volunteer in a dry solid form. This sample was dialyzed, dried down, and had arginine added as an absorption enhancer such that the dried powder included only the zinc-charged 4H3 and arginine. As with the test shown in FIG. 1a, the saliva samples were taken from the human subject 0-, 3-, 6-, 9-, 12-, 15-, 18-, 21-, and 24-hours post-ingestion. The saliva samples were then incubated with HT-29 cancer cells, and their apoptotic activity recorded after 6-, 10-, 14-, and 24-hours."}, "[5]": {"test_system": "human pancreatic cancer Bx-PC3-G mouse orthotopic model", "assay": "orthotopic pancreatic cancer model in mice", "type": "in vivo", "details": "oral, 21-day period", "procedure": "In this test, two doses of zinc-charged 4H3 and a control of only the vehicle were orally administered to mice with orthotopic pancreatic cancer. The zinc-charged 4H3 was administered in a “low dose” of 0.5 mg per mouse and a “high dose” of 1.0 mg per mouse."}, "P38 MAPK": {"test_system": "P38 MAPK", "assay": "brain P38 MAPK level in mice", "type": "in vivo", "details": "1 mg/day for 5 days, oral", "procedure": "(§2) FIGS. 11a-d provide the graphical representations of these observations. FIG. 11a depicts the level of brain ATP in mice that were orally administered zinc-charged 4H3 compared to mice who were given the control. […] FIG. 11b depicts the level of brain Tau protein ATP in mice that were orally administered zinc-charged 4H3 compared to mice who were given the control. In this test, a 2.7 μg protein load was utilized. […] FIG. 11c depicts a retest of FIG. 11b, but with a lower protein load utilized instead. […] Lastly, FIG. 11d depicts the brain P38 MAPK levels in mice that were orally administered zinc-charged 4H3 compared to mice who were given the control. In this test, the mice given the zinc-charged 4H3 saw their brain P38 MAPK levels decrease by 61%."}, "HT-29 cancer cells": {"test_system": "HT-29 cancer cells", "assay": "tissue distribution: mouse tissue homogenates incubated with HT-29 cells, percentage of cells under apoptosis", "type": "cell-based", "details": "mice, five days administration", "procedure": "These observations were confirmed by studying the tissue distribution of the zinc-charged 4H3 in mice after five days administration, as shown in FIG. 3. For these tests, tissue homogenates were taken from the mice five days after receiving the zinc-charged 4H3, then prepared and incubated with HT-29 cancer cells for various times, followed by the determination of the percentage of cell under apoptosis."}, "glutaminase": {"test_system": "glutaminase", "assay": "glutaminase activity in HT-29 cell lysate", "type": "cell-based", "details": "HT-29, 2 μM, 30-90 minutes", "description": "FIGS. 16a-b depict the zinc-charged peptides inhibiting glutaminase activity in HT-29 cancer cells. Glutaminase is another important enzyme responsible for the synthesis of ATP in mitochondria. […] The inhibition of the enzyme glutaminase, along with the inhibition of respiratory chains in cancer cells explain the depletion of ATP in cancer cells shown in FIG. 5."}, "[6]": {"assay": "brain ATP level in mice fed zinc-charged 4H3", "type": "in vivo", "details": "1 mg/day for 5 days, oral", "procedure": "as §2"}, "[7]": {"test_system": "cancer-associated fibroblasts", "assay": "cellular ATP level in cancer-associated fibroblasts", "type": "cell-based", "details": "2 μM, 2 hours", "procedure": "FIGS. 12a-b display a cell culture study showing the ATP levels and hexokinase II activities of CAFs that were cultured with 2 μM zinc-charged 4H3 for 2 hours. […] These findings confirmed that the zinc-charged peptides caused ATP depletion and hexokinase II inhibition in CAFs."}, "Tau protein": {"test_system": "Tau protein", "assay": "brain Tau protein in mice (ELISA)", "type": "in vivo", "details": "for decrease in brain Tau protein: 1 mg/mouse, 5 days, oral", "procedure": "as §2"}, "respiratory chain III [8]": {"test_system": "respiratory chain III", "assay": "respiratory chain III activity, mitochondria isolated from HT-29 cells", "type": "biochemical", "details": "HT-29 colon cancer cells; 5 μM, 2 hours (FIG. 15b)", "procedure": "as §1"}}, "note": "“And” between values parts separate entries of the source, which are not always exact repeats. Identical values can stand only once. Ends that are not written are not given here.", "data": [{"sequence": "EYGLFQISNKK [zinc-charged 4H3]", "values": [{"measurement": "inhibition of respiratory chain III", "setting": "respiratory chain III [1]", "result": 42, "unit": "%"}, {"measurement": "increase of activity of respiratory chain I", "setting": "respiratory chain I [2]", "result": 21, "unit": "%"}, {"measurement": "inhibition of respiratory chain I", "setting": "respiratory chain I [3]", "result": 70.9, "unit": "%"}, {"measurement": "half-life", "setting": "[4]", "result": 8, "unit": "h"}, {"measurement": "time at which saliva-induced apoptotic activity peaked", "setting": "HT-29 colon cancer cells; 150 mg oral, dry solid form with arginine", "result": 12, "unit": "h"}, {"measurement": "time at which saliva-induced apoptotic activity peaked", "setting": "HT-29 colon cancer cells; 200 mg oral, liquid form, undialyzed", "result": 9, "unit": "hours post-ingestion"}, {"measurement": "effect of saliva sample on HT-29 cancer cells", "setting": "HT-29 colon cancer cells; saliva 4 hours after ingestion, 36 hours incubation", "result": "very little effect"}, {"measurement": "effect of saliva sample on HT-29 cancer cells", "setting": "HT-29 colon cancer cells; saliva after 10-hour ingestion, 36 hours incubation", "result": "clear apoptosis activity"}, {"measurement": "effect of saliva sample on HT-29 cancer cells", "setting": "HT-29 colon cancer cells; saliva collected 4-hours post-ingestion, 14- and 24-hour incubation, 200 mg liquid", "result": "little effect"}, {"measurement": "effect of saliva sample on HT-29 cancer cells", "setting": "HT-29 colon cancer cells; saliva collected 10-hours post-ingestion, 14-hour and 24-hour incubations, 200 mg liquid", "result": "cell rounded up, cell shrinkage, and membrane blebbing"}, {"measurement": "reduction of mean tumor size", "setting": "[5]; high dose 1.0 mg per mouse", "result": 38.0, "unit": "%"}, {"measurement": "reduction of mean tumor size", "setting": "[5]; low dose 0.5 mg per mouse", "result": 28.1, "unit": "%"}, {"measurement": "reduction of brain P38 MAPK", "setting": "P38 MAPK", "result": 61, "unit": "%"}, {"measurement": "apoptosis activity of tissue homogenate", "setting": "HT-29 cancer cells; colon", "result": "did not display any apoptosis activity"}, {"measurement": "apoptosis activity of tissue homogenate", "setting": "HT-29 cancer cells; jaw", "result": "did not display any apoptosis activity"}, {"measurement": "apoptosis activity of tissue homogenate", "setting": "HT-29 cancer cells; lung", "result": "did not display any apoptosis activity"}, {"measurement": "apoptosis activity of tissue homogenate", "setting": "HT-29 cancer cells; pancreas", "result": "contained apoptosis activity"}, {"measurement": "amount of glutamate and alpha-ketoglutarate", "setting": "glutaminase", "result": "lower amount"}, {"measurement": "glutaminase activity in the cell lysate", "setting": "glutaminase", "result": "significantly lower glutaminase activity"}, {"measurement": "increase of brain ATP", "setting": "[6]", "result": "89.9% and 89.8%"}, {"measurement": "reduction of ATP levels in CAFs", "setting": "[7]", "result": 95.6, "unit": "%"}, {"measurement": "reduction of Tau protein in the brain", "setting": "Tau protein; 1 mg/day for 5 days, both protein loads", "result": "22.4-27.5%"}, {"measurement": "decrease in brain Tau protein", "setting": "Tau protein; 0.55 μg protein load", "result": 22.4, "unit": "%"}, {"measurement": "decrease in brain Tau protein", "setting": "Tau protein; 2.7 μg protein load", "result": 27.5, "unit": "%"}, {"measurement": "inhibition of respiratory chain III", "setting": "respiratory chain III [8]", "result": 71.2, "unit": "%"}]}]}
